Test results from ChEMBL document CHEMBL1156259, “Synthesis and biological evaluation of amidine, guanidine, and thiourea derivatives of 2-amino(6-trifluoromethoxy)benzothiazole as neuroprotective agents potentially useful in brain diseases” (J Med Chem, 2010).
Active and inactive are the calls of the source. No cut-off for these calls is given here.

Assays:
[1] = Antioxidant activity assessed as ABTS+ radical scavenging activity by spectrophotometry relative to 1 mM Trolox; assay type: functional
[2] = system: Cortex; assay: Neuroprotective activity in Sprague-Dawley rat brain cortex slices assessed as interval of drug concentration causing reduction of oxygen/glucose deprivation-induced glutamate release; assay type: functional
[3] = system: Cortex; assay: Neuroprotective activity in Sprague-Dawley rat brain cortex slices assessed as drug concentration causing maximum reduction of oxygen/glucose deprivation-induced glutamate release; assay type: functional; conditions: read-out: MEC
[4] = system: Cortex; assay: Neuroprotective activity in Sprague-Dawley rat brain cortex slices assessed as reduction of oxygen/glucose deprivation-induced glutamate release at minimal effective concentration; assay type: functional; parameters: scale not given: the % may be the effect or the level left
[5] = system: Cortex; assay: Neuroprotective activity in Sprague-Dawley rat brain cortex slices assessed as interval of drug concentration causing reduction of oxygen/glucose deprivation-induced LDH release; assay type: functional
[6] = system: Cortex; assay: Neuroprotective activity in Sprague-Dawley rat brain cortex slices assessed as drug concentration causing maximum reduction of oxygen/glucose deprivation-induced LDH release; assay type: functional; conditions: read-out: MEC
[7] = system: Cortex; assay: Neuroprotective activity in Sprague-Dawley rat brain cortex slices assessed as reduction of oxygen/glucose deprivation-induced LDH release at minimal effective concentration; assay type: functional; parameters: scale not given: the % may be the effect or the level left
[8] = cells; assay type: tissue-based; conditions: Rattus norvegicus, Wistar, Piriform cortex
Description: Inhibition of voltage-dependent Ca(+) channel in Wistar rat brain piriform cortex acutely dissociated neurons assessed as inhibition of high voltage activated Ba+ current amplitude at under holding potential of -60 mV by whole cell patch clamp assay

[9] = species: Rattus norvegicus; conditions: Wistar, Piriform cortex, at 50 µM
Description: Inhibition of voltage-dependent Na(+) channel in Wistar rat brain piriform cortex layer 2 assessed as inhibition of transient Na+ current amplitude at 50 uM under holding potential of -80 mV by whole cell patch clamp assay

[10] = species: Rattus norvegicus; conditions: Wistar, Piriform cortex, at 60 µM
Description: Inhibition of voltage-dependent Ca(+) channel in Wistar rat brain piriform cortex acutely dissociated neurons assessed as effect on half activation potential of high voltage activated Ba+ current at 60 uM by whole cell patch clamp assay

[11] = species: Rattus norvegicus; conditions: Wistar, Piriform cortex, at 60 µM; remark: listed apart in the source
Description: Inhibition of voltage-dependent Ca(+) channel in Wistar rat brain piriform cortex acutely dissociated neurons assessed as effect on high voltage activated Ba+ current activation speed at 60 uM by whole cell patch clamp assay

[12] = species: Rattus norvegicus; conditions: Wistar, Piriform cortex, at 60 µM; remark: listed apart in the source
Description: Inhibition of voltage-dependent Ca(+) channel in Wistar rat brain piriform cortex acutely dissociated neurons assessed as effect on high voltage activated Ba+ current deactivation at 60 uM by whole cell patch clamp assay

[13] = molecular target: Nitric oxide synthase 1 (Rattus norvegicus) (UniProt P29476); assay: Inhibition of nNOS in Sprague-Dawley rat brain assessed as nitric oxide-mediated conversion of oxyhemoglobin to methemoglobin
Nitric oxide synthase 1 (Rattus norvegicus), sequence (P29476 whole entry): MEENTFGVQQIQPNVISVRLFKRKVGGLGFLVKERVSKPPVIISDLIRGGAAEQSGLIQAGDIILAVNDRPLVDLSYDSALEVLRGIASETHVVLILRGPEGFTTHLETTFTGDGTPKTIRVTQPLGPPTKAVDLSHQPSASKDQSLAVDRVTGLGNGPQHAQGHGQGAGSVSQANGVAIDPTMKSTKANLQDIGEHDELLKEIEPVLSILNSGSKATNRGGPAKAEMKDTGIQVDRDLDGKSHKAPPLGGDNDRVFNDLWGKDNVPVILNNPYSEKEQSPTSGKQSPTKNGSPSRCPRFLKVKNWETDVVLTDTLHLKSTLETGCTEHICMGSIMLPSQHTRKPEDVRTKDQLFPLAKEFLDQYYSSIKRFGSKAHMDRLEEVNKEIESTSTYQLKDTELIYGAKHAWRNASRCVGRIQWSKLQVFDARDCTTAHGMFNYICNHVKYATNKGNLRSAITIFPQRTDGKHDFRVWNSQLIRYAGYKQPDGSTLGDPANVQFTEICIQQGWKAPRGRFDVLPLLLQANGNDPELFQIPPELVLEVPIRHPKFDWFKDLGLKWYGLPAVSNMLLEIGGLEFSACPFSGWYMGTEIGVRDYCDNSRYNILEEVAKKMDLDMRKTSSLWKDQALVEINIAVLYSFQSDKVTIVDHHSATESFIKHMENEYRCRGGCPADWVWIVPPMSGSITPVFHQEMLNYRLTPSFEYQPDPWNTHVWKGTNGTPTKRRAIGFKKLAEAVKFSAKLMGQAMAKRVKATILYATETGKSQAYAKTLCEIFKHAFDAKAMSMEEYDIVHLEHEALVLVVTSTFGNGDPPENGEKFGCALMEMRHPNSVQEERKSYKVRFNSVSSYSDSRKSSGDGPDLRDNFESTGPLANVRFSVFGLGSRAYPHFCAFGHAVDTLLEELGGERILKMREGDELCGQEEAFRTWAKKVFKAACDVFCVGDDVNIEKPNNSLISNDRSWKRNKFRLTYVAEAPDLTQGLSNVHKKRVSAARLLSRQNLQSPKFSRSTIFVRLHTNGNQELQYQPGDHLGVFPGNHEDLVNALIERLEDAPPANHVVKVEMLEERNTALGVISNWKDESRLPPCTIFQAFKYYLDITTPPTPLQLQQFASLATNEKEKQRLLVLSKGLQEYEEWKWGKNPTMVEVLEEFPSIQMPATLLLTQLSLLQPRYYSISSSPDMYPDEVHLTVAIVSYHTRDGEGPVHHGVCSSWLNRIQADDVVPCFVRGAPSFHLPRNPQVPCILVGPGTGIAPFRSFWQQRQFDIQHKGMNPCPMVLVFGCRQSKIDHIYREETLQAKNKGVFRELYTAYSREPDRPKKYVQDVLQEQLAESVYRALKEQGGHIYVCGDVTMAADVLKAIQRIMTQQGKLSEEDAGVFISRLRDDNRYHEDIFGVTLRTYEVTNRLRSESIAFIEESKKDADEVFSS

Row | Compound | Ratio [1] | Activity [2] [µM] | minimal effective concentration [3] [µM] | Activity [4] [%] | Activity [5] [µM] | minimal effective concentration [6] [µM] | Activity [7] [%] | IC50 [8] [µM] | inhibition [9] [%] | inhibition [10] | inhibition [11] | inhibition [12] | inhibition [1] | inhibition [13]
1 | O=c1c2ccccc2[se]n1-c1ccccc1 | 0.32 | – | – | – | – | – | – | – | – | – | – | – | – | –
2 | CCCCNC(=S)Nc1nc2ccc(OC(F)(F)F)cc2s1 | 0.98 | 0.01 | 1 | 100 | 0.01 | 0.01 | 32 | 24.1 | 0 | inactive | inactive | Active | – | –
3 | CC(C)NC(=S)Nc1nc2ccc(OC(F)(F)F)cc2s1 | 0.64 | 0.01 | 0.1 | 80.3 | 0.01 | 0.01 | 50 | – | – | – | – | – | – | –
4 | Nc1nc2ccc(OC(F)(F)F)cc2s1 [RILUZOLE] | – | 1 | 1 | 100 | 0.1 | 10 | 100 | 34.2 | > 50 | inactive | inactive | Active | inactive | –
5 | C/C(=N\c1nc2ccc(OC(F)(F)F)cc2s1)N(C)C | – | 0.1 | 0.1 | 100 | 0.1 | 0.1 | 56.9 | – | – | – | – | – | – | inactive
6 | CCCNC(=S)Nc1nc2ccc(OC(F)(F)F)cc2s1 | 0.5 | 0.01 | 0.01 | 94.2 | 0.01 | 0.01 | 60.9 | – | 15 | – | – | – | – | –
7 | CCNC(=S)Nc1nc2ccc(OC(F)(F)F)cc2s1 | 0.88 | 1 | 1 | 80.1 | 0.1 | 0.1 | 73.1 | – | – | – | – | – | – | –
